The values below come from ChEMBL document CHEMBL1149683, “Novel TOPP descriptors in 3D-QSAR analysis of apoptosis inducing 4-aryl-4H-chromenes: comparison versus other 2D- and 3D-descriptors” (2007).

Structures are written as SMILES.

This experiment has as its system HL-60. As to the kind of experiment: Induction of apoptosis in human HL60 […]. Format: functional.
On to `CCNc1ccc2c(c1)OC(N)=C(C#N)C2c1cccc([N+](=O)[O-])c1` (stereo not drawn), for which the “Log (1/C)” value is on record as 6.96.
The result for `COc1cc(C2C(C#N)=C(N)Oc3c2ccc(N)c3N)cc(Br)c1OC` (stereo not drawn) reads 7.47; that for `COc1cccc(C2C(C#N)=C(N)Oc3cc(N(C)C)ccc32)c1OC` (stereo not drawn), 5.99.
For the compound `CN(C)c1ccc2c(c1)OC(N)=C(C#N)C2c1cc(Cl)cc(Cl)c1` (stereo not drawn), the “Log (1/C)” value is 7.12.
Turning to `CN(C)c1ccc2c(c1)OC(N)=C(C#N)C2c1cc(Br)c2c(c1)OCO2` (stereo not drawn), the “Log (1/C)” value was determined as 6.61.
The result for `N#CC1=C(N)Oc2c(ccc(N)c2N)C1c1cccc([N+](=O)[O-])c1` (stereo not drawn) reads 6.41; that for `COc1ccc2c(c1)OC(N)=C(C#N)C2c1cccc(Br)c1` (stereo not drawn), 7.28; that for `N#CC1=C(N)Oc2c(ccc(N)c2N)C1c1cccc(C#N)c1` (stereo not drawn), 6.41.
Turning to `COc1cc(C2C(C#N)=C(N)Oc3cc4c(cc32)OCO4)cc2c1OCO2` (stereo not drawn), the “Log (1/C)” value came to 6.68.
As to `COc1ccc2c(c1)OC(N)=C(C#N)C2c1ccccc1` (stereo not drawn), the “Log (1/C)” value was 6.44.
The result for `CCNc1ccc2c(c1)OC(N)=C(C#N)C2c1cc(OC)c2c(c1)OCO2` (stereo not drawn) reads 6.48; that for `CN(C)c1ccc2c(c1)OC(N)=C(C#N)C2c1cccs1` (stereo not drawn), 6.7.
The result for `CN(C)c1ccc2c(c1)OC(N)=C(C#N)C2CCc1ccccc1` (stereo not drawn) reads 6.37.
The result for `CN(C)c1ccc2c(c1)OC(N)=C(C#N)C2c1cccnc1` (stereo not drawn) reads 7.17; that for `COc1ccc2c(c1)OC(N)=C(C#N)C2c1cccnc1` (stereo not drawn), 6.77.
With `CN(C)c1ccc2c(c1)OC(N)=C(C#N)C2c1ccncc1` (stereo not drawn), the “Log (1/C)” value is 6.42.
The result for `CCNc1cc2c(cc1C)C(c1cc(OC)c3c(c1)OCO3)C(C#N)=C(N)O2` (stereo not drawn) reads 5.96; that for `COc1cc(C2C(C#N)=C(N)Oc3c2ccc(C)c3C)cc(Br)c1OC` (stereo not drawn), 7.38; that for `N#CC1=C(N)Oc2c(ccc(N)c2N)C1c1cccc(Br)c1` (stereo not drawn), 6.82.
The result for `COc1cc(C2C(C#N)=C(N)Oc3cc(Cl)ccc32)cc(Br)c1OC` (stereo not drawn) reads 6.8; that for `COc1cc(C2C(C#N)=C(N)Oc3cc(N(C)C)ccc32)cc2c1OCO2` (stereo not drawn), 7.14; that for `COc1ccc2c(c1)OC(N)=C(C#N)C2c1cc(OC)c2c(c1)OCO2` (stereo not drawn), 6.8.
The result for `CN(C)c1ccc2c(c1)OC(N)=C(C#N)C2c1cccc(C#N)c1` (stereo not drawn) reads 7.2; that for `COc1ccc(C2C(C#N)=C(N)Oc3cc(N(C)C)ccc32)c(OC)c1OC` (stereo not drawn), 5.5; that for `CN(C)c1ccc2c(c1)OC(N)=C(C#N)C2c1cnc2ccccc2c1` (stereo not drawn), 5.74.
With `COc1cc(C2C(C#N)=C(N)Oc3cc(N)ccc32)cc(Br)c1OC` (stereo not drawn), the “Log (1/C)” value was 7.48.
The result for `COc1cc(C2C(C#N)=C(N)Oc3c2ccc(O)c3N)cc(Br)c1OC` (stereo not drawn) reads 7.21.
The result for `COc1ccc2c(c1)OC(N)=C(C#N)C2c1cccc([N+](=O)[O-])c1` (stereo not drawn) reads 7.05.
The result for `COc1cc(C2C(C#N)=C(N)Oc3c2ccc(O)c3O)cc(Br)c1OC` (stereo not drawn) reads 5.77.
In the case of `COc1ccc2c(c1)OC(N)=C(C#N)C2c1cc(Br)c(OC)c(OC)c1` (stereo not drawn), the “Log (1/C)” value was found to be 7.77.
The result for `CN(C)c1ccc2c(c1)OC(N)=C(C#N)C2c1cccc(Cl)c1` (stereo not drawn) reads 6.95; that for `COc1cc(C2C(C#N)=C(N)Oc3cc(N(C)C)ccc32)cc(I)c1OC` (stereo not drawn), 7.74; that for `CN(C)c1ccc2c(c1)OC(N)=C(C#N)C2c1cccc(Br)c1` (stereo not drawn), 7.19.
The result for `Cc1cccc(C2C(C#N)=C(N)Oc3cc(N(C)C)ccc32)n1` (stereo not drawn) reads 6.61; that for `CN(C)c1ccc2c(c1)OC(N)=C(C#N)C2c1ccccn1` (stereo not drawn), 6.33; that for `COc1ccc(C2C(C#N)=C(N)Oc3cc(N(C)C)ccc32)cc1OC` (stereo not drawn), 6.6.
The result for `COc1cccc(C2C(C#N)=C(N)Oc3cc(OC)ccc32)c1` (stereo not drawn) reads 7.28.
Regarding `COc1ccccc1C1C(C#N)=C(N)Oc2cc(N(C)C)ccc21` (stereo not drawn), the “Log (1/C)” value was 6.55.
For the compound `COc1cc(C2C(C#N)=C(N)Oc3cc(N)ccc32)cc2c1OCO2` (stereo not drawn), the “Log (1/C)” value is recorded as 5.92.
The result for `CCNc1ccc2c(c1)OC(N)=C(C#N)C2c1cccc(OC)c1` (stereo not drawn) reads 6.96.
The result for `CCNc1ccc2c(c1)OC(N)=C(C#N)C2c1cc(Br)c(OC)c(OC)c1` (stereo not drawn) reads 7.85; that for `COc1cc(OC)cc(C2C(C#N)=C(N)Oc3c2ccc(N)c3N)c1` (stereo not drawn), 7.04; that for `COc1cc(C2C(C#N)=C(N)Oc3cc(N(C)C)ccc32)cc(Cl)c1OC` (stereo not drawn), 7.74.
The result for `CN(C)c1ccc2c(c1)OC(N)=C(C#N)C2c1cncc(Br)c1` (stereo not drawn) reads 7.48; that for `Cc1cncc(C2C(C#N)=C(N)Oc3cc(N(C)C)ccc32)c1` (stereo not drawn), 7.96; that for `COc1cccc(C2C(C#N)=C(N)Oc3cc(N(C)C)ccc32)c1` (stereo not drawn), 7.19.
Take `COc1ccc2c(c1)OC(N)=C(C#N)C2c1cccc(Cl)c1` (stereo not drawn): the “Log (1/C)” value stood at 7.1.
The result for `COc1ccc2c(c1)OC(N)=C(C#N)C2c1cc(OC)c(OC)c(OC)c1` (stereo not drawn) reads 7.59; that for `COc1cc(C2C(C#N)=C(N)Oc3c2ccc(N)c3N)cc(I)c1OC` (stereo not drawn), 5.31; that for `CN(C)c1ccc2c(c1)OC(N)=C(C#N)C2c1cccc(OC(F)(F)F)c1` (stereo not drawn), 6.35.
`CN(C)c1ccc2c(c1)OC(N)=C(C#N)C2c1cccc(F)c1` (stereo not drawn): the “Log (1/C)” value is recorded as 7.09.
As for `COc1cc(Br)cc(C2C(C#N)=C(N)Oc3cc(N(C)C)ccc32)c1` (stereo not drawn), the “Log (1/C)” value is listed as 7.51.
The result for `COc1cc(OC)c(C2C(C#N)=C(N)Oc3cc(N(C)C)ccc32)cc1OC` (stereo not drawn) reads 5.75; that for `COc1ccc(C2C(C#N)=C(N)Oc3cc(N(C)C)ccc32)cc1` (stereo not drawn), 5.8.
The result for `CCNc1ccc2c(c1)OC(N)=C(C#N)C2c1cc(OC)cc(OC)c1` (stereo not drawn) reads 7.26; that for `COc1cc(C2C(C#N)=C(N)Oc3cc(O)ccc32)cc(Br)c1OC` (stereo not drawn), 6.89; that for `CCNc1ccc2c(c1)OC(N)=C(C#N)C2c1cc(OC)c(OC)c(OC)c1` (stereo not drawn), 7.31.
The result for `COc1cc(OC)cc(C2C(C#N)=C(N)Oc3cc(OC)ccc32)c1` (stereo not drawn) reads 7.82; that for `COc1cc(C2C(C#N)=C(N)Oc3c2ccc(N)c3C)cc(Br)c1OC` (stereo not drawn), 7.59.
`CN(C)c1ccc2c(c1)OC(N)=C(C#N)C2c1cccc(O)c1` (stereo not drawn): the “Log (1/C)” value was found to be 6.57.
The result for `COc1cc(C2C(C#N)=C(N)Oc3c2ccc(N)c3C)cc2c1OCO2` (stereo not drawn) reads 6.51; that for `CN(C)c1ccc2c(c1)OC(N)=C(C#N)C2c1cc(Br)cs1` (stereo not drawn), 6.82.
The result for `COc1cc(C2C(C#N)=C(N)Oc3cc(Br)ccc32)cc(Br)c1OC` (stereo not drawn) reads 6.85; that for `COc1ccc(CC2C(C#N)=C(N)Oc3cc(N(C)C)ccc32)c(Br)c1OC` (stereo not drawn), 5.14.
With `COc1cc(C2C(C#N)=C(N)Oc3c2ccc(N)c3N)cc(Br)c1O` (stereo not drawn), the “Log (1/C)” value was determined as 7.64.
The result for `CCOc1ccc2c(c1)OC(N)=C(C#N)C2c1cc(Br)c(OC)c(OC)c1` (stereo not drawn) reads 7.19.
The result for `Cc1cccc(C2C(C#N)=C(N)Oc3cc(N(C)C)ccc32)c1` (stereo not drawn) reads 6.87; that for `COc1cc(C2C(C#N)=C(N)Oc3c2ccc(N)c3N)cc(Cl)c1OC` (stereo not drawn), 7.62.
The result for `COc1cncc(C2C(C#N)=C(N)Oc3cc(OC)ccc32)c1` (stereo not drawn) reads 7.33.
Consider `CCN(CC)c1ccc2c(c1)OC(N)=C(C#N)C2c1cc(OC)c2c(c1)OCO2` (stereo not drawn), for which the “Log (1/C)” value was 6.32.
The result for `COc1cc(C2C(C#N)=C(N)Oc3cc(N(C)C)ccc32)cc(Br)c1O` (stereo not drawn) reads 7.39; that for `CCNc1ccc2c(c1)OC(N)=C(C#N)C2c1cccc(Cl)c1` (stereo not drawn), 6.92.
Turning to `COc1cc(C2C(C#N)=C(N)Oc3cc(O)ccc32)cc2c1OCO2` (stereo not drawn), the “Log (1/C)” value is on record as 5.24.
